The assay deals with T1, Indoleamine 2,3-dioxygenase (Homo sapiens, UniProt P14902).
T1 construct: endogenous in cells; host or cells: SKOV-3 (ATCC HTB-77), stimulated with 50 ng/ml interferon gamma
Put plainly: SKOV-3 Cellular Indoleamine 2,3-dioxygenase Assay. The settings on record: SKOV-3 cells, 50 ng/ml Interferon gamma, 100 μM L-Tryptophan, 24 hours, N-Formylkynurenin fluorescence detection; read-out: cell based activity (IC50). How it is done: SKOV-3 Cellular Indoleamine 2,3-dioxygenase Assay
SKOV-3 cells were obtained from the American Type Culture Collection (ATCC® HTB-77™) and maintained in McCoy's medium (Pan Biotech) supplemented with 10% fetal bovine serum and 1% Penicillin/Streptomycin. Cells were kept at 37° C. in a humidified incubator with 5% CO2. For assay preparation, cells were seeded at a density of 2*10^5/ml into black clear bottom 96 well plates in 100 μl medium/well supplemented with 50 ng/ml Interferon gamma (eBioscience, Thermo Fisher Scientific). After cells fully adhered to the plate, dilution series of compounds were added in medium containing additional L-Tryptophan to a final L-Tryptophan concentration of 100 μM. The cells were incubated for 24 hours. Detection of produced N-Formylkynurenin was performed by addition of 3-Methylpiperidine to a final concentration of 200 mM. The plates were sealed and heated to 65° C. for 20 minutes in a water bath. After cooling the fluorescence of each well was recorded with a Victor™X4 (PerkinElmer) plate reader at an emission wavelength of 535 nm and excitation at 405 nm (Tomek et al.; Anal Bioanal Chem (2013) 405:2515-2524, Tomek et al.; Biochim Biophys Acta. 2015 September; 1850(9):1772-80).

For orientation: IC50 means the midpoint of a concentration-inhibition curve.

T1 sequence (P14902 whole entry): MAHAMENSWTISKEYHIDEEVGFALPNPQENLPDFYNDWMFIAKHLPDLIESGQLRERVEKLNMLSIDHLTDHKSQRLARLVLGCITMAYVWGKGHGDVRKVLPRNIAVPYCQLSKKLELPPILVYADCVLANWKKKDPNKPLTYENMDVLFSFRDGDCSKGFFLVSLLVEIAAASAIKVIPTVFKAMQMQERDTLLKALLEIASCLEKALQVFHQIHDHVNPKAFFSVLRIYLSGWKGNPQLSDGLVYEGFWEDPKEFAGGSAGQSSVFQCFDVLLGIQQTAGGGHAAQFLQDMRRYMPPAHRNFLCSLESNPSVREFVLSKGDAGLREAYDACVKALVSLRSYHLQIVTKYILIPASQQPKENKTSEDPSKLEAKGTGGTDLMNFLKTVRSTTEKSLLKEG

Turning to `C[C@@H](C(=O)Nc1ccc(Cl)cc1)[C@H]1CC[C@@]2(CC1)COc1cc(C(F)(F)F)ccc12` [Example 3c, (R)—N-(4-Chlorophenyl)-2-((3R,4′r)-6-(trifluoromethyl)-2H-spiro[benzofuran-3,1′-cyclohexan]-4′-yl)propanamide], the IC50 was below 50 nM.
Next, `CC(C(=O)Nc1ccc(Cl)cc1F)C1CCC2(CC1)COc1cc(C(F)(F)F)ccc12` (single isomer, unassigned) [Example 7d, N-(4-Chloro-2-fluorophenyl)-2-(6-(trifluoromethyl)-2H-spiro[benzofuran-3,1′-cyclohexan]-4′-yl)propanamide]: below 50 nM; `CC1CCC(NC(=O)C(C)C2CCC3(CC2)COc2cc(C(F)(F)F)ccc23)CC1` (single isomer, unassigned) [Example 9c, N-((1r,4r)-4-Methylcyclohexyl)-2-(6-(trifluoromethyl)-2H-spiro[benzofuran-3,1′-cyclohexan]-4′-yl)propanamide]: at least 50 nM.
As for `CC(C(=O)Nc1ccc(Cl)cc1)C1CCC2(CC1)c1ccc(C(F)(F)F)cc1C(=O)N2C` (single isomer, unassigned) [Example 6c, N-(4-Chlorophenyl)-2-(2′-methyl-3′-oxo-5′-(trifluoromethyl)spiro[cyclohexane-1,1′-isoindolin]-4-yl)propanamide], the IC50 was below 50 nM.
For the compound `C[C@@H](C(=O)Nc1ccc(Cl)cc1)[C@H]1CC[C@]2(CC1)COc1cc(C(F)(F)F)ccc12` [Example 3e, (R)—N-(4-chlorophenyl)-2-((3S,4′s)-6-(trifluoromethyl)-2H-spiro[benzofuran-3,1′-cyclohexan]-4′-yl)propanamide], the IC50 is at least 50 nM.
Next, `CC(c1nc2cc(Cl)ccc2[nH]1)C1CCC2(CC1)COc1cc(C(F)(F)F)ccc12` (single isomer, unassigned) [Example 11c, 5-Chloro-2-(1-(6-(trifluoromethyl)-2H-spiro[benzofuran-3,1′-cyclohexan]-4′-yl)ethyl)-1H-benzo[d]imidazole]: below 50 nM; `CC(C(=O)Nc1ccc(Cl)cc1)C1CCC2(CC1)c1ccc(C(F)(F)F)cc1C(=O)N2C` (single isomer, unassigned) [Example 6e, N-(4-Chlorophenyl)-2-(2′-methyl-3′-oxo-5′-(trifluoromethyl)spiro[cyclohexane-1,1′-isoindolin]-4-yl)propanamide]: at least 50 nM; `O=C(C[C@H]1CC[C@@]2(CCc3ccccc32)CC1)Nc1ccc(Cl)cc1` (single isomer, unassigned) [Example 1c, N-(4-chlorophenyl)-2-(2′,3′-dihydrospiro[cyclohexane-1,1′-inden]-4-yl)acetamide]: below 50 nM.
As to `C[C@H](C(=O)Nc1ccc(Cl)cc1)[C@H]1CC[C@@]2(CC1)COc1cc(C(F)(F)F)ccc12` [Example 3b, (S)—N-(4-Chlorophenyl)-2-((3S,4′r)-6-(trifluoromethyl)-2H-spiro[benzofuran-3,1′-cyclohexan]-4′-yl)propanamide], the IC50 is below 50 nM.
On to `CC(C(=O)Nc1ccc(Cl)cc1)C1CCC2(CC1)COc1nc(C(F)(F)F)ccc12` (single isomer, unassigned) [Example 5e, N-(4-chlorophenyl)-2-(6′-(trifluoromethyl)-2′H-spiro[cyclohexane-1,3′-furo[2,3-b]pyridin]-4-yl)propanamide], for which the IC50 was below 50 nM.
With `O=C(C[C@H]1CC[C@@]2(CC1)COc1cc(C(F)(F)F)ccc12)Nc1ccc(Cl)cc1F` (single isomer, unassigned) [Example 14b, N-(4-chloro-2-fluorophenyl)-2-(6-(trifluoromethyl)-2H-spiro[benzofuran-3,1′-cyclohexan]-4′-yl)acetamide], the IC50 is at least 50 nM.
The same measure for `CC(C(=O)Nc1ccc(Cl)cc1F)C1CCC2(CC1)COc1cc(C(F)(F)F)ccc12` (single isomer, unassigned) [Example 7b, N-(4-Chloro-2-fluorophenyl)-2-(6-(trifluoromethyl)-2H-spiro[benzofuran-3,1′-cyclohexan]-4′-yl)propanamide]: below 50 nM.
Regarding `Cc1ccc(NC(=O)C(C)C2CCC3(CC2)COc2cc(C(F)(F)F)ccc23)cc1` (single isomer, unassigned) [Example 8b, N-(p-Tolyl)-2-(6-(trifluoromethyl)-2H-spiro[benzofuran-3,1′-cyclohexan]-4′-yl)propanamide], the IC50 was below 50 nM.
Regarding `CC(C(=O)Nc1ccc(Cl)cc1)[C@H]1CC[C@@]2(CCc3ccccc32)CC1` (single isomer, unassigned) [Example 2b, N-(4-chlorophenyl)-2-(2′,3′-dihydrospiro[cyclohexane-1,1′-inden]-4-yl)propanamide], the IC50 is below 50 nM.
With `CC1CCC(NC(=O)C(C)C2CCC3(CC2)COc2cc(C(F)(F)F)ccc23)CC1` (single isomer, unassigned) [Example 9e, N-((1r,4r)-4-Methylcyclohexyl)-2-(6-(trifluoromethyl)-2H-spiro[benzofuran-3,1′-cyclohexan]-4′-yl)propanamide], the IC50 was below 50 nM.
On to `Cc1ccc(NC(=O)C(C)C2CCC3(CC2)COc2cc(C(F)(F)F)ccc23)cc1` (single isomer, unassigned) [Example 8c, N-(p-Tolyl)-2-(6-(trifluoromethyl)-2H-spiro[benzofuran-3,1′-cyclohexan]-4′-yl)propanamide], for which the IC50 is below 50 nM.
Next, `CC(c1nc2cc(Cl)ccc2[nH]1)C1CCC2(CC1)COc1cc(C(F)(F)F)ccc12` (single isomer, unassigned) [Example 11b, 5-Chloro-2-(1-(6-(trifluoromethyl)-2H-spiro[benzofuran-3,1′-cyclohexan]-4′-yl)ethyl)-1H-benzo[d]imidazole]: at least 50 nM; `CC(C(=O)Nc1ccc(Cl)cc1)C1CCC2(CC1)COc1nc(C(F)(F)F)ccc12` (single isomer, unassigned) [Example 5c, N-(4-chlorophenyl)-2-(6′-(trifluoromethyl)-2′H-spiro[cyclohexane-1,3′-furo[2,3-b]pyridin]-4-yl)propanamide]: below 50 nM.
For the compound `Cc1ccc(NC(=O)C(C)C2CCC3(CC2)COc2cc(C(F)(F)F)ccc23)cc1` (single isomer, unassigned) [Example 8e, N-(p-Tolyl)-2-(6-(trifluoromethyl)-2H-spiro[benzofuran-3,1′-cyclohexan]-4′-yl)propanamide], the IC50 was at least 50 nM.
For `O=C(C[C@H]1CC[C@@]2(CCc3ccccc32)CC1)Nc1ccc(Cl)cc1` (single isomer, unassigned) [Example 1b, N-(4-chlorophenyl)-2-(2′,3′-dihydrospiro[cyclohexane-1,1′-inden]-4-yl)acetamide], the IC50 is at least 50 nM.
`CC(c1nc2cc(Cl)ccc2[nH]1)C1CCC2(CC1)COc1cc(C(F)(F)F)ccc12` (single isomer, unassigned) [Example 11e, 5-Chloro-2-(1-(6-(trifluoromethyl)-2H-spiro[benzofuran-3,1′-cyclohexan]-4′-yl)ethyl)-1H-benzo[d]imidazole]: the IC50 is below 50 nM.
Turning to `CC(C(=O)Nc1ccc(Cl)cc1)C1CCC2(CC1)COc1ncc(C(F)(F)F)cc12` (single isomer, unassigned) [Example 4c, N-(4-chlorophenyl)-2-(5′-(trifluoromethyl)-2′H-spiro[cyclohexane-1,3′-furo[2,3-b]pyridin]-4-yl)propanamide], the IC50 was at least 50 nM.
As for `CCC(C(=O)Nc1ccc(Cl)cn1)C1CCC2(CC1)COc1cc(C(F)(F)F)ccc12` (single isomer, unassigned) [Example 10c, N-(5-chloropyridin-2-yl)-2-(6-(trifluoromethyl)-2H-spiro[benzofuran-3,1′-cyclohexan]-4′-yl)butanamide], the IC50 was below 50 nM.
As to `CC(C(=O)Nc1ccc(Cl)cc1)[C@H]1CC[C@@]2(CCc3ccccc32)CC1` (single isomer, unassigned) [Example 2a, N-(4-chlorophenyl)-2-(2′,3′-dihydrospiro[cyclohexane-1,1′-inden]-4-yl)propanamide], the IC50 is below 50 nM.
Consider `CC(C(=O)Nc1ccc(Cl)cc1)C1CCC2(CC1)c1ccc(C(F)(F)F)cc1C(=O)N2C` (single isomer, unassigned) [Example 6d, N-(4-Chlorophenyl)-2-(2′-methyl-3′-oxo-5′-(trifluoromethyl)spiro[cyclohexane-1,1′-isoindolin]-4-yl)propanamide], for which the IC50 is at least 50 nM.
Regarding `CC(C(=O)Nc1ccc(Cl)cc1)C1CCC2(CC1)c1ccc(C(F)(F)F)cc1C(=O)N2C` (single isomer, unassigned) [Example 6b, N-(4-Chlorophenyl)-2-(2′-methyl-3′-oxo-5′-(trifluoromethyl)spiro[cyclohexane-1,1′-isoindolin]-4-yl)propanamide], the IC50 is at least 50 nM.
For `O=C(C[C@H]1CC[C@@]2(CC1)COc1cc(C(F)(F)F)ccc12)Nc1ccc(Cl)cc1F` (single isomer, unassigned) [Example 14a, N-(4-chloro-2-fluorophenyl)-2-(6-(trifluoromethyl)-2H-spiro[benzofuran-3,1′-cyclohexan]-4′-yl)acetamide], the IC50 was below 50 nM.
